Columns and labels:
Format in all cases: in vitro ADME
[1] = Assay 1. Stability in Simulated Gastric Fluid (SGF)
How it was run: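 Compound at 1 μM final (from 1 mM DMSO stock) incubated at 37° C in SGF: NaCl medium at pH 1.6 with FaSSIF powder and 0.1 mg/mL pepsin, prepared fresh. Aliquots taken at T0 and regular intervals, quenched with equal volume acetonitrile; LC/MS gives degradation rate.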

[2] = Assay 2. Stability in Simulated Intestinal Fluid (SIF); details: SIF pH 6.7 with pancreatin, 1 μM, 37° C.
How it was run: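 Compounds at 1 µM (from 1 mM DMSO stock) were incubated at 37 °C with agitation in simulated intestinal fluid: FaSSIF in pH 6.7 phosphate buffer with pancreatin. Aliquots taken from T0 onward were quenched with acetonitrile and analyzed by LC/MS for degradation rate.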

[3] = Assay 3. In vitro Colonic Material Stability Assay; details: colonic material slurry, anaerobic, 1 or 10 μM
[4] = SGF pH 1.6 with pepsin, 1 μM, 37° C.

Compound	Assay 1 (SGF) (% Remaining @ 1 hour) [1, 4]	Assay 2 (SIF) (% @ Remaining 4 hours) [2]	Assay 3 (% Remaining at 24 h) [3]	Assay 1 (SGF) (% Remaining @ 1 hour) ([1]; Batch 1, SGF)	Assay 1 (SGF) (% Remaining @ 1 hour) ([1]; Batch 2, SGF)
CCCC(=O)O[C@@H]1[C@@H](OC(=O)CCC)[C@H](C)O[C@@H](Oc2ccc(N)cc2C(=O)O)[C@@H]1OC(=O)CCC [Compound 39, 5-amino-2-(((2S,3R,4R,5S,6S)-3,4,5-tris(butyryloxy)-6-methyltetrahydro-2H-pyran-2-yl)oxy)benzoic acid]	C (>75% of the tested compound remaining)	B (25-75% of the tested compound remaining)	C (>75% of the tested compound remaining)		
CCC(=O)O[C@@H]1[C@@H](OC(=O)CC)[C@H](OC)OC[C@H]1OC(=O)CC [Compound 73, (2R,3R,4S,5R)-2-methoxy-4,5-bis(propanoyloxy)oxan-3-yl propanoate]	C (>75% of the tested compound remaining)	A (<25% of the tested compound remaining)	A (<25% of the tested compound remaining)		
CCCC(=O)O[C@@H]1[C@@H](OC(=O)CCC)[C@@H](Oc2ccc(N)cc2C(=O)O)OC[C@@H]1OC(=O)CCC [Compound 22, 5-amino-2-[(2R,3R,4S,5S)-3,4,5-tri(butanoyloxy)tetrahydropyran-2-yl]oxy-benzoic acid]	C (>75% of the tested compound remaining)	B (25-75% of the tested compound remaining)	B (25-75% of the tested compound remaining)		
O=C(CCc1c[nH]c2ccccc12)O[C@@H]1OC[C@@H](OC(=O)CCc2c[nH]c3ccccc23)[C@@H](OC(=O)CCc2c[nH]c3ccccc23)[C@H]1OC(=O)CCc1c[nH]c2ccccc12 [Compound 80, (2S,3R,4R,5R)-3,4,5-tris({[3-(1H-indol-3-yl)propanoyl]oxy})oxan-2-yl 3-(1H-indol-3-yl)propanoate]	C (>75% of the tested compound remaining)	A (<25% of the tested compound remaining)	A (<25% of the tested compound remaining)		
CCC(=O)O[C@@H]1OC[C@@H](OC(=O)CC)[C@@H](OC(=O)CC)[C@H]1OC(=O)CC [Compound 104, (2S,3R,4R,5R)-3,4,5-tris(propanoyloxy)oxan-2-yl propanoate]	C (>75% of the tested compound remaining)	A (<25% of the tested compound remaining)	A (<25% of the tested compound remaining)		
CCC(=O)O[C@@H]1[C@@H](OC(=O)CC)[C@@H](OC)OC[C@@H]1OC(=O)CC [Compound 53, (2S,3R,4S,5S)-2-methoxy-3,5-bis(propanoyloxy)oxan-4-yl propanoate]	C (>75% of the tested compound remaining)	B (25-75% of the tested compound remaining)	C (>75% of the tested compound remaining)		
CC(=O)O[C@H]1OC[C@H](OC(C)=O)[C@H](OC(C)=O)[C@H]1OC(C)=O [Compound 219, (2R,3R,4S,5S)-tetrahydro-2H-pyran-2,3,4,5-tetrayl tetraacetate]	C (>75% of the tested compound remaining)	A (<25% of the tested compound remaining)	A (<25% of the tested compound remaining)		
CCC(=O)Oc1cc(C(=O)O)cc(OC(=O)CC)c1OC(=O)CC [Compound 201, 3,4,5-tris(propanoyloxy)benzoic acid]	C (>75% of the tested compound remaining)	A (<25% of the tested compound remaining)	A (<25% of the tested compound remaining)		
CCCC(=O)Oc1ccc(-c2oc3cc(OC(=O)CCC)cc(OC(=O)CCC)c3c(=O)c2OC(=O)CCC)cc1 [Compound 166, 4-[3,5,7-tris(butanoyloxy)-4-oxo-4H-chromen-2-yl]phenyl butanoate]	B (25-75% of the tested compound remaining)	A (<25% of the tested compound remaining)	A (<25% of the tested compound remaining)		
CCC(=O)O[C@@H]1[C@@H](OC(=O)CC)[C@H](OC(=O)Cc2c[nH]c3ccccc23)OC[C@H]1OC(=O)CC [Compound 76, (2S,3R,4S,5R)-2-{[2-(1H-indol-3-yl)acetyl]oxy}-4,5-bis(propanoyloxy)oxan-3-yl propanoate]	C (>75% of the tested compound remaining)	A (<25% of the tested compound remaining)	A (<25% of the tested compound remaining)		
CCC(=O)O[C@@H]1[C@@H](OC(=O)CC)[C@@H](OC(=O)/C=C/c2c[nH]c3ccccc23)OC[C@H]1OC(=O)CC [Compound 93, (2R,3R,4S,5R)-3,4,5-tris(propanoyloxy)oxan-2-yl (2E)-3-(1H-indol-3-yl)prop-2-enoate]	C (>75% of the tested compound remaining)	A (<25% of the tested compound remaining)	A (<25% of the tested compound remaining)		
CCC(=O)O[C@@H]1[C@@H](OC(=O)CC)[C@H](C)O[C@@H](OC(=O)/C=C/c2c[nH]c3ccccc23)[C@@H]1OC(=O)CC [Compound 102, (2S,3R,4R,5S,6S)-6-methyl-3,4,5-tris(propanoyloxy)oxan-2-yl (2E)-3-(1H-indol-3-yl)prop-2-enoate]	C (>75% of the tested compound remaining)	B (25-75% of the tested compound remaining)	A (<25% of the tested compound remaining)		
CCCC(=O)O[C@@H]1[C@@H](OC(=O)CCC)[C@H](Oc2ccc(N)cc2C(=O)O)OC[C@H]1OC(=O)CCC [Compound 19, 5-amino-2-[(2S,3R,4S,5R)-3,4,5-tri(butanoyloxy)tetrahydropyran-2-yl]oxy-benzoic acid]	C (>75% of the tested compound remaining)	B (25-75% of the tested compound remaining)	B (25-75% of the tested compound remaining)		
CCCC(=O)O[C@H]1[C@@H](Oc2ccc(N)cc2C(=O)O)OC[C@@H](OC(=O)CCC)[C@H]1OC(=O)CCC [Compound 185, 5-amino-2-(((2R,3R,4R,5R)-3,4,5-tris(butyryloxy)tetrahydro-2H-pyran-2-yl)oxy)benzoic acid]	C (>75% of the tested compound remaining)	B (25-75% of the tested compound remaining)	B (25-75% of the tested compound remaining)		
CCCC(=O)OC[C@H]1O[C@H](OC(=O)CCc2c[nH]c3ccccc23)[C@H](OC(=O)CCC)[C@@H](OC(=O)CCC)[C@@H]1OC(=O)CCC [Compound 90, [(2R,3R,4S,5R,6R)-3,4,5-tris(butanoyloxy)-6-{[3-(1H-indol-3-yl)propanoyl]oxy}oxan-2-yl]methyl butanoate]	C (>75% of the tested compound remaining)	B (25-75% of the tested compound remaining)	A (<25% of the tested compound remaining)		
CCC(=O)O[C@@H]1[C@H](OC)OC[C@@H](OC(=O)CC)[C@H]1OC(=O)CC [Compound 68, (2R,3S,4R,5R)-2-methoxy-3,5-bis(propanoyloxy)oxan-4-yl propanoate]	C (>75% of the tested compound remaining)	A (<25% of the tested compound remaining)	B (25-75% of the tested compound remaining)		
CCC(=O)O[C@H]1[C@H](OC(=O)CC)[C@H](OC(=O)CCc2c[nH]c3ccccc23)O[C@@H](C)[C@H]1OC(=O)CC [Compound 123, (2S,3S,4R,5R,6S)-6-methyl-3,4,5-tris(propanoyloxy)oxan-2-yl 3-(1H-indol-3-yl)propanoate]		C (>75% of the tested compound remaining)	A (<25% of the tested compound remaining)	C (>75% of the tested compound remaining)	B (25-75% of the tested compound remaining)
CCC(=O)OC[C@H]1O[C@@H](OC(=O)CCc2c[nH]c3ccccc23)[C@H](OC(=O)CC)[C@@H](OC(=O)CC)[C@@H]1OC(=O)CC [Compound 112, [(2R,3R,4S,5R,6S)-6-{[3-(1H-indol-3-yl)propanoyl]oxy}-3,4,5-tris(propanoyloxy)oxan-2-yl]methyl propanoate]	C (>75% of the tested compound remaining)	A (<25% of the tested compound remaining)	A (<25% of the tested compound remaining)		
CCC(=O)O[C@@H]1O[C@H](C(=O)O)[C@@H](OC(=O)CC)[C@H](OC(=O)CC)[C@H]1OC(=O)CC [Compound 47, (2S,3S,4S,5R,6S)-3,4,5,6-tetrakis(propanoyloxy)oxane-2-carboxylic acid]	C (>75% of the tested compound remaining)	A (<25% of the tested compound remaining)	A (<25% of the tested compound remaining)		
CCCC(=O)Oc1ccc(-c2cc(=O)c3c(OC(=O)CCC)cc(OC(=O)CCC)cc3o2)cc1 [Compound 170, 5-(butanoyloxy)-2-[4-(butanoyloxy)phenyl]-4-oxo-4H-chromen-7-yl butanoate]	B (25-75% of the tested compound remaining)	A (<25% of the tested compound remaining)	A (<25% of the tested compound remaining)		
